Results published in ChEMBL document CHEMBL1201862, “PubChem BioAssay data set” (2004).
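Dose response: 5 concentrations. Exposure: 48 h. Format: 96-well plates. Endpoint: linear interpolation; highest concentration if not reached. Abbreviation: GI50, concentration required for 50% inhibition of growth.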 The source made the active and inactive calls. Rule as the data show it: active = GI50 up to about 1.1 µM and inactive = higher.

What was measured:
Assay in all cases: growth of human tumour cells (NCI), 48 h
EKVX = system: EKVX
DMS-114 = system: DMS-114
CAKI-1 = system: CAKI-1
HCC 2998 = system: HCC 2998
SK-OV-3 = system: SK-OV-3
SK-MEL-5 = system: SK-MEL-5
SF-539 = system: SF-539
IGROV-1 = system: IGROV-1
SF-295 = system: SF-295
UO-31 = system: UO-31
SN12C = system: SN12C
SK-MEL-28 = system: SK-MEL-28
SNB-75 = system: SNB-75
KM12 = system: KM12
DLD-1 = system: DLD-1
HCT-116 = system: HCT-116
SNB-78 = system: SNB-78
RXF 631 = system: RXF 631
HCT-15 = system: HCT-15
OVCAR-4 = system: OVCAR-4
UACC-257 = system: UACC-257
HOP-18 = system: HOP-18
NCI-H460 = system: NCI-H460
XF498 = system: XF498
NCI-H226 = system: NCI-H226
OVCAR-8 = system: OVCAR-8
SW-620 = system: SW-620
HL-60 = system: HL-60
NCI-H522 = system: NCI-H522
RXF 393 = system: RXF 393
U-251 = system: U-251
A498 = system: A498
COLO 205 = system: COLO 205
RPMI-8226 = system: RPMI-8226
Malme-3M = system: Malme-3M
ACHN = system: ACHN
NCI-H23 = system: NCI-H23
SR = system: SR
DMS-273 = system: DMS-273
M19-MEL = system: M19-MEL
HT-29 = system: HT-29
LXFL 529 = system: LXFL 529
OVCAR-3 = system: OVCAR-3
K562 = system: K562
HOP-92 = system: HOP-92
MOLT-4 = system: MOLT-4
SF-268 = system: SF-268
OVCAR-5 = system: OVCAR-5
TK-10 = system: TK-10
UACC-62 = system: UACC-62
CCRF-CEM = system: CCRF-CEM
M14 = system: M14
A549 = system: A549
KM-20L2 = system: KM-20L2
HOP-62 = system: HOP-62
786-0 = system: 786-0
LOX IMVI = system: LOX IMVI
SK-MEL-2 = system: SK-MEL-2
SNB-19 = system: SNB-19

In the case of `N#C/C(=C\c1c(Cl)cccc1Cl)c1ccccc1`, the GI50 (EKVX) is reported as 18.3 µM (inactive), the GI50 (DMS-114) is reported as 12.4 µM (inactive) and the GI50 (CAKI-1) is reported as 8.47 µM (inactive). For the same compound, the GI50 (HCC 2998) was > 39.2 µM (inactive), the GI50 (SK-OV-3) was 6.11 µM (inactive) and the GI50 (SK-MEL-5) was 5.51 µM (inactive). For the same compound, the GI50 (SF-539) was 2.72 µM (inactive), the GI50 (IGROV-1) was 9.29 µM (inactive) and the GI50 (SF-295) was 4.43 µM (inactive). The GI50 (UO-31) was 17.7 µM (inactive), the GI50 (SN12C) was 9.82 µM (inactive) and the GI50 (SK-MEL-28) was 6.92 µM (inactive). For the same compound, the GI50 (SNB-75) was 2.97 µM (inactive), the GI50 (KM12) was 4.86 µM (inactive) and the GI50 (DLD-1) was 5.18 µM (inactive). The GI50 (HCT-116) was 4.36 µM (inactive), the GI50 (SNB-78) was 11.1 µM (inactive) and the GI50 (RXF 631) was 7.23 µM (inactive). For the same compound, the GI50 (HCT-15) was 4.16 µM, the GI50 (OVCAR-4) was 20.1 µM (inactive) and the GI50 (UACC-257) was 8.65 µM (inactive). For the same compound, the GI50 (HOP-18) was > 50.1 µM (inactive), the GI50 (NCI-H460) was 4.69 µM (inactive) and the GI50 (XF498) was 8.13 µM (inactive). For the same compound, the GI50 (NCI-H226) was > 22.9 µM (inactive), the GI50 (OVCAR-8) was 16.4 µM (inactive) and the GI50 (SW-620) was 2.74 µM (inactive). For the same compound, the GI50 (HL-60) was 3.6 µM (inactive), the GI50 (NCI-H522) was 14.2 µM (inactive) and the GI50 (RXF 393) was 6.12 µM (inactive). For the same compound, the GI50 (U-251) was 4.39 µM (inactive), the GI50 (A498) was 3.13 µM (inactive) and the GI50 (COLO 205) was 2.4 µM (inactive). The GI50 (RPMI-8226) was 5.48 µM (inactive), the GI50 (Malme-3M) was 10.2 µM (inactive) and the GI50 (ACHN) was 7.59 µM (inactive). The GI50 (NCI-H23) was 14.9 µM (inactive), the GI50 (SR) was 2.63 µM (inactive) and the GI50 (DMS-273) was 3.35 µM (inactive). The GI50 (M19-MEL) was 8.57 µM (inactive), the GI50 (HT-29) was 4.19 µM (inactive) and the GI50 (LXFL 529) was 33.7 µM (inactive). The GI50 (OVCAR-3) was 3.8 µM (inactive), the GI50 (K562) was 3.15 µM (inactive) and the GI50 (HOP-92) was 8.49 µM (inactive). For the same compound, the GI50 (MOLT-4) was 4.73 µM (inactive), the GI50 (SF-268) was 18.5 µM (inactive) and the GI50 (OVCAR-5) was > 77.4 µM (inactive). The GI50 (TK-10) was 15.8 µM (inactive), the GI50 (UACC-62) was 4.88 µM (inactive) and the GI50 (CCRF-CEM) was 2.88 µM (inactive). The GI50 (M14) was 6.4 µM (inactive), the GI50 (A549) was 7.8 µM (inactive) and the GI50 (KM-20L2) was 3.85 µM (inactive). For the same compound, the GI50 (HOP-62) was 3.83 µM (inactive), the GI50 (786-0) was 4.92 µM (inactive) and the GI50 (LOX IMVI) was 18.7 µM (inactive). For the same compound, the GI50 (SK-MEL-2) was 5.78 µM (inactive) and the GI50 (SNB-19) was 3.66 µM (inactive).
